Results from patent US20220251079A1, “BENZO[B][1,8]NAPHTHYRIDINE ACETIC ACID DERIVATIVES AND METHODS OF USE” (STINGTHERA, INC., priority 2019, published 2022).

Key:
[1] = molecular target: T1, human STING protein (140-379) (Homo sapiens, UniProt Q86WV6, H232R); test: Radiometric filtration binding competition assay (WT_FBA_HIS-SUMO-hSWAT); details: read-out: WT-hSWAT IC50
T1 construct: 6XHIS-SUMO-hSTING (140-379); made in house; host or cells: BL-21(DE3) E. coli, pET vector
Procedure, shortened: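 Compounds (2-fold dilutions, 8 points, top 300 μM) were preincubated for 30 min with 0.5 μM recombinant C-terminal STING domain, human residues 140-379 or mouse residues 139-328, His-SUMO tagged. Displacement of a tritium-labelled probe was read by filtration and scintillation counting. Dose-response fits gave IC50, then Ki.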

[2] = molecular target: T2, mouse STING protein (139-328) (Mus musculus, UniProt Q3TBT3); test: Radiometric filtration binding competition assay (MOUSE_FBA_HIS-SUMO-mSWAT); details: read-out: WT-mSWAT IC50
T2 construct: mouse STING protein (139-328); made in house
T2 sequence (Q3TBT3 139-328): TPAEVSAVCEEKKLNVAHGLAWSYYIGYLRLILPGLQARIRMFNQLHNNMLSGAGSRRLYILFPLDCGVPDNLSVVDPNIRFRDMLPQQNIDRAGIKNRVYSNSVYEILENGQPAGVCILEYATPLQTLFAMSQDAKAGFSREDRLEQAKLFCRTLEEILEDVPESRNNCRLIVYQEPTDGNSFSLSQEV
Method: A radiometric filtration binding competition assay was performed to quantify the binding affinity of compounds of the present application for the human or mouse STING protein, or associated HAQ human isoform. The competition format filtration binding assay detects the ability of small molecule compounds from binding to and inhibiting the subsequent binding of a tritiated [H3] […] The resulting dose response was fit by non-linear regression to determine an IC50 value, from which a Ki value for each compound was extrapolated.
Briefly, the recombinant C-terminal ligand binding domain of the human STING protein (140-379) or mouse STING protein (139-328) [0.5 μM] was incubated in the presence of a compound of the present application (8 point, 2 fold dilution starting at 300 μM) for 30 min or under control conditions. […] The resulting complexes were then filtered, dried, and scintillation fluid was added and the remaining radio signal was measured to determine the degree of compound ligand inhibition. This assay format was optimized for both the WT and HAQ isoforms of the human protein and the mouse orthologue protein.
Parameters optimized: • a. Form of protein: 6×HIS-SUMO tag or untagged • b. Concentration of target protein: Minimum concentration that achieved >80 max signal • c. Assay DMSO concentration: 10%-0.1% • d. […]

hSTING-R232 = molecular target: T3, hSTING-R232 (Homo sapiens, UniProt Q86WV6, H232R); test: STING Differential Scanning Fluorimetry (DSF) assay, human; assay type: binding; details: human STING R232-WT, 5 μM protein
T3 construct: recombinant mouse or human STING protein (aa140-379); 6xHis-SUMO elsewhere) (cleaved yes); made in house
T3 sequence (Q86WV6 140-379 H232R): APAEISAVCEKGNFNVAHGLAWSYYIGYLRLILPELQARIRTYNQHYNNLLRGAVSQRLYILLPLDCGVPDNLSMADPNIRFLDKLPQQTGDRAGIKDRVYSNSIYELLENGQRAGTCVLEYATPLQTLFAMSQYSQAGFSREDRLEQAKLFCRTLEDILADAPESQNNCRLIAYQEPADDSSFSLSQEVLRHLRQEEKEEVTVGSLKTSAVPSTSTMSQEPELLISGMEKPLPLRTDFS
Procedure, shortened: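 Purified STING C-terminal domain (aa140-379, R232), human or mouse, at 5 μM in 100 mM NaCl, 30 mM HEPES pH 7.5 with SYBR Orange, was heated at 0.5° C./min. Tm came from dF/dT; ΔTm and FC50 were derived from an 11-point 2-fold series from 300 μM, in duplicate.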

mSTING-R232 (aa139-378) = molecular target: T4, mSTING-R232 (aa139-378) (Mus musculus, UniProt Q3TBT3); test: STING Differential Scanning Fluorimetry (DSF) assay, mouse; assay type: binding; details: 5 μM protein
T4 construct: mSTING-R232 (aa139-378); 6xHis-SUMO; made in house
T4 sequence (Q3TBT3 139-378): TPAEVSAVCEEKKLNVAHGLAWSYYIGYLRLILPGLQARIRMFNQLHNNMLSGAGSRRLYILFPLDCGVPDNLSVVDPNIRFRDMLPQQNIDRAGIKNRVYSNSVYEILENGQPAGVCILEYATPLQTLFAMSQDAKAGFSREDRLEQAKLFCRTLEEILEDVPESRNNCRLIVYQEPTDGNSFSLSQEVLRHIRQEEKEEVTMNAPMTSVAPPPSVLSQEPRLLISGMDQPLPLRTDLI
Method: A STING DSF assay was performed to determine protein thermostability shift in response to small molecule ligand binding. A STING thermostability shift assay based on differential scanning fluorimetry was used to measure (1) the net shift in melting temperature (ΔTm)between the apo and ligand-bound states of the STING protein and (2) the concentration of the thermal denaturation transition (FC50) as a surrogate measure of binding affinity (Kd). Briefly, recombinant mouse or human STING protein (aa140-379) comprising the C-terminal binding domain (R232-WT) were purified by affinity chromatography and further processed to remove the purification tag, followed by gel filtration to achieve purity >95%. Protein in assay buffer was transferred to a 384 well plate and incubated with the hydrophobic fluorescent dye SYBR Orange. A temperature ramp was applied to the plate and the resulting dye fluorescence was plotted as a function of temperature. The first derivative of this function (dF/dT) was then used to extrapolate the melting temperature of the protein at various concentrations of compound and determine the thermal denaturation profile of a protein/compound complex.
2. 5 μM purified Target STING Protein
4. Buffer: 100 mM NaCl, 30 mM HEPES, pH 7.5
5. Thermal Ramp: 0.5° C./min
7. 11 point, 2 fold dilution, duplicate, 300 μM high concentrations

STING protein = molecular target: T5, STING protein (Homo sapiens, UniProt Q86WV6, H232R); test: Cell based reporter assay of IRF activation (THP1-dual-KI R232, IRF luciferase); details: THP-1; read-out: THP1-dual-KI R232_IRF(Luciferase)_Activity Maximum measured (%)
T5 construct: host or cells: THP-1 dual reporter cells, TMEM173 modified from HAQ to R232 (THP1-dual-KI R232)
T5 sequence (Q86WV6 whole entry H232R): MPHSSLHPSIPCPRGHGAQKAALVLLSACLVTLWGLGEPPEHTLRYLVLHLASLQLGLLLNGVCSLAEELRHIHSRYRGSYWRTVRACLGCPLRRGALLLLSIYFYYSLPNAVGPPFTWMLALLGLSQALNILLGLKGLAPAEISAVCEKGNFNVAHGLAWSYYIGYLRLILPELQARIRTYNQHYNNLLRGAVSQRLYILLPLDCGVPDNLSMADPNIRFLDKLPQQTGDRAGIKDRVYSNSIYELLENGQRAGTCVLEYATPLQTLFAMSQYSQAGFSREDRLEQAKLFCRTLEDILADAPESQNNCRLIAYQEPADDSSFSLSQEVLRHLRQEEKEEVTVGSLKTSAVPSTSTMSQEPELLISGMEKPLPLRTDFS
Procedure, shortened: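 THP-1 monocytes stably carried an ISG54/5×ISRE firefly luciferase IRF reporter, with TMEM173 knock-in H71R A230G Q293R (R232 variant), and there was no PMA pre-activation. Compounds were tested at 8 points, 2-fold, in duplicate from 150 µM. Cell Titer Glo was applied after supernatant removal.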

T1 sequence (Q86WV6 140-379 H232R): as the sequence (Q86WV6 140-379 H232R) above

CCOc1c(Cl)ccc2c(=O)c3ccc(C(C)C)nc3n(CC(=O)O)c12 [Compound 3]
IC50 [1]: 20 to 100 µM | IC50 [2]: 20 to 100 µM | WT_DSF_hSWAT Tm Shift (° C.) (hSTING-R232): D (“D” > 7° C.) | MOUSE DSF_6xHIS-SUMO Tm Shift (° C.) (mSTING-R232 (aa139-378)): C (“C” = 5-15° C.) | Emax (STING protein): > 50%

CCOc1c(Cl)ccc2c(=O)c3ccc(C)nc3n(CC(=O)O)c12 [Compound 2]
IC50 [1]: 100 to 300 µM | IC50 [2]: 100 to 300 µM | WT_DSF_hSWAT Tm Shift (° C.) (hSTING-R232): C (“C” = 2-7° C.) | MOUSE DSF_6xHIS-SUMO Tm Shift (° C.) (mSTING-R232 (aa139-378)): C (“C” = 5-15° C.) | Emax (STING protein): > 50%
